# Results as given in patent US10508086B2 (CANCER RESEARCH TECHNOLOGY LIMITED, priority 2014, dated 2019).
# Like-named read-outs stand apart in the source and are kept apart here.
# How the values were obtained:
# PARG in HeLa cell line = PARG in HeLa cell line (Homo sapiens (Human), UniProt Q86W56); assay: PARG cell assay (nuclear PAR chains after MMS, immunofluorescence); format: cell-based
# Description: This method is based on the detection of endogenous levels of poly (ADP) ribose chains present in the nucleus of HeLa cell line using indirect immunofluorescence. MMS stimulation increases PAR chains for up to 25 mins. After that point, PARG is active and breaks down the PAR chains, until by one hour after stimulation no PAR chains are detectable. Inhibition of PARG maintains PAR chains.
# Briefly, following compound treatment and treatment with the DNA damaging agent methylmethanesulfonate (MMS), the cell monolayer is fixed, then permeabilised and incubated with a mouse monoclonal antibody raised against multimers of poly(ADP) ribose. After an overnight incubation, excess antibody is removed by washing and an Alexafluor 488-linked secondary antibody which recognises the mouse monoclonal is added together with a nuclear stain (Hoechst 33342). Images of the cells are then captured and analysed on a High Content Screening platform and the total intensity of the nuclear fluorescent signal at […] is quantified.
# HeLa cells, seeded in 384-well plates, at 4000/well in 30 μL RPMI 1640 media, supplemented with 10% FBS and 2 mM Glutamax, were incubated overnight at 37° C., 5% CO2.
# The following day, cells were dosed in quadruplicate with compound (10 point dose response) and incubated for 1 h at 37° C., 5% CO2.
# At the end of the 1 h dosing period, MMS was added to duplicates at a final concentration of 50 μg/mL, for a further hour.
# Media was tipped off and the cells fixed with 50 μL ice-cold 95% MetOH/PBS for 15 mins at −20° C. Following a PBS wash, 50 μL PBS/0.1% Triton was added to the cells for 20 mins. Following another PBS wash, anti-PAR antibody (Calbiochem AM80) was diluted 1:4000 in a buffer (PBS+0.5% FBS+0.05% Tween20) and added to the cells and incubated overnight at 4° C.
# The following day, cells were washed three times with PBS and then incubated for 1 hr with secondary antibody (Alexa Fluor® 488 goat anti mouse IgG (H+L)) diluted 1:1000 and Hoechst diluted 1:5000 in buffer (5% FBS in PBS+0.05% Tween20).
# Cells were washed three times with PBS and the plate sealed with a light-proof seal.
# Images of the cells were captured on a ThermoFisher Celllnsight and the mean total intensity of spots fluorescent at 485 nm in the nucleus was reported.
# Human Full Length PARG = Human Full Length PARG (Homo sapiens (Human), UniProt Q86W56); assay: PARG in vitro enzyme assay (TR-FRET); format: biochemical; conditions: read-out: PARG_EC50_ENZYME
# Description: PARG In vitro assays were conducted in a total volume of 15 ul in a standard 384 well format. 5 ul of Human Full Length PARG (Produced internally by Astra Zeneca), used at a final reaction concentration of […], was added to 5 ul of Ribosylated PARP substrate (also produced internally by Astra Zeneca) at final reaction concentration of 4.5 nM in assay buffer (50 mM Tris pH7.4, 0.1 mg/ml BSA, 3 mM EDTA, 0.4 mM EGTA, 1 mM DTT, 0.01% Tween 20, 50 mM KCl). The reaction was incubated at room temperature for 10 minutes and then 5 ul detection reagent was added. Detection Reagent consists of 42 nM MAb Anti-6HIS XL665 (CisBio: 61 HISXLB) and 2.25 nM Streptavidin Europium Cryptate (CisBio: 610SAKLB), both at 3× working stock concentrations (final concentrations of 14 nM and 0.75 nM respectively), in a detection buffer of 50 mM Tris pH7.4, BSA at 0.1 mg/ml and KF at 100 mM. Following incubation at room temperature for 60 minutes in the dark, TR-FRET signal was measured at Ex 340 and Em 665 and Em 620. A ratio was calculated as Em665/EM620×104 for each well and used to calculate percent inhibition for test compounds.
# [1] = HeLa cells, MMS 50 μg/mL, read-out: PARG Cell IC50 Geomean
# Sequence of Human Full Length PARG (Q86W56 whole entry): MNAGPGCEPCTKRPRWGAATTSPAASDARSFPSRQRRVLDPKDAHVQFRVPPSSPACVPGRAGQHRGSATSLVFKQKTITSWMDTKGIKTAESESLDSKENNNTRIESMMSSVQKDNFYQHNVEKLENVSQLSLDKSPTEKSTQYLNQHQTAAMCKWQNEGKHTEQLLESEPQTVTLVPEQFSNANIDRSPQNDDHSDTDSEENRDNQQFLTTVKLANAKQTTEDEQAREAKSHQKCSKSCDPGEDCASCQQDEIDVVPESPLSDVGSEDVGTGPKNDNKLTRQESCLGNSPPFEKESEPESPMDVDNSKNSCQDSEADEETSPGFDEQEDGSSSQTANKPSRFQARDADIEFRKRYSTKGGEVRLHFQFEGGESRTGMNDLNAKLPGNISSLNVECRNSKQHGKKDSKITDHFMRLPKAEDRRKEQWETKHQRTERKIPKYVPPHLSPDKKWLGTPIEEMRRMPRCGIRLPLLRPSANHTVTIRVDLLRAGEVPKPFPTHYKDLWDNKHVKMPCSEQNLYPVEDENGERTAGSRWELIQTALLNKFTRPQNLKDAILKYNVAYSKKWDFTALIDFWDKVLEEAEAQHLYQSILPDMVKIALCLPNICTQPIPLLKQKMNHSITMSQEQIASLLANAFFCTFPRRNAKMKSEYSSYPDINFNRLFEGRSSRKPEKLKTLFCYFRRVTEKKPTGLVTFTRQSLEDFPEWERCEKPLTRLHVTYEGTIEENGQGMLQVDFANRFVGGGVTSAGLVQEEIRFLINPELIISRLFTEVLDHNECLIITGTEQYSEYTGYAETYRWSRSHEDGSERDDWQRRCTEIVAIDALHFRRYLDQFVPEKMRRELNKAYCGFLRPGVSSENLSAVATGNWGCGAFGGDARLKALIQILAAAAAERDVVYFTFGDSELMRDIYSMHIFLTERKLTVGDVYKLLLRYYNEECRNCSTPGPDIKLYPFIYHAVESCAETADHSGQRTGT
# Sequence of PARG in HeLa cell line (Q86W56 whole entry): as above
Compound,IC50 (PARG in HeLa cell line; [1]),EC50 (Human Full Length PARG),IC50 (PARG in HeLa cell line)
Cc1cc(Cn2c(=O)n(-c3nnc(C)s3)c3cc(S(=O)(=O)NC4(C)CC4)ccc32)n(C)n1 [Example 84],271 nM,359 nM,–
COc1ccc(Cn2c(=O)n(-c3nnc(C)s3)c3cc(S(=O)(=O)NC4(C)CC4)ccc32)cc1 [Example 86],277 nM,403 nM,–
Cn1c(=O)n(-c2ncns2)c2cc(S(=O)(=O)NC3(C)CC3)ccc21 [Example 98],694 nM,359 nM,–
Cc1nnc(-n2c(=O)n(Cc3sc(C)nc3C)c3ccc(S(=O)(=O)NC4(C)CC4)cc32)o1 [Example 99],342 nM,202 nM,–
C#CCn1c(=O)n(-c2nnc(C)s2)c2cc(S(=O)(=O)NC3(C)CC3)ccc21 [Example 100],194 nM,265 nM,–
Cc1nnc(-n2c(=O)n(Cc3ncco3)c3ccc(S(=O)(=O)NC4(C)CC4)cc32)s1 [Example 101],390 nM,246 nM,–
Cc1ccc(Cn2c(=O)n(-c3nnc(C)s3)c3cc(S(=O)(=O)NC4(C)CC4)ccc32)o1 [Example 103],221 nM,284 nM,–
Cc1ccc(Cn2c(=O)n(-c3nnc(C)s3)c3cc(S(=O)(=O)NC4(C)CC4)ccc32)s1 [Example 104],245 nM,280 nM,–
COc1nsc(-n2c(=O)n(Cc3sc(C)nc3C)c3ccc(S(=O)(=O)NC4(C)CC4)cc32)n1 [Example 105],246 nM,269 nM,–
Cc1cnc(-n2c(=O)n(Cc3sc(C)nc3C)c3ccc(S(=O)(=O)NC4(C)CC4)cc32)s1 [Example 107],159 nM,86 nM,–
Cc1nc(C)c(Cn2c(=O)n(-c3nc(Br)ns3)c3cc(S(=O)(=O)NC4(C)CC4)ccc32)s1 [Example 108],67 nM,69 nM,–
Cc1nc(C)c(Cn2c(=O)n(-c3nccs3)c3cc(S(=O)(=O)NC4(C)CC4)ccc32)s1 [Example 111],507 nM,147 nM,–
CCOC(=O)n1c(=O)n(Cc2sc(C)nc2C)c2ccc(S(=O)(=O)NC3(C)CC3)cc21 [Example 112],850 nM,140 nM,–
"Cc1nnc(-n2c(=O)n(C)c3cc(F)c(S(=O)(=O)NC4(C)CC4)cc32)s1 [Example 116, 6-Fluoro-1-methyl-N-(1-methylcyclopropyl)-3-(5-methyl-1,3,4-thiadiazol-2-yl)-2-oxo-benzimidazole-5-sulfonamide]",197 nM,245 nM,–
CNC(=O)c1noc(Cn2c(=O)n(-c3nnc(C)o3)c3cc(S(=O)(=O)NC4(C)CC4)ccc32)n1 [Example 117],24700 nM,275 nM,–
"Cc1nnc(-n2cc(C(=O)C3CC3)c3ccc(S(=O)(=O)NC4(C)CC4)cc32)s1 [Example 130, 3-(Cyclopropanecarbonyl)-N-(1-methylcyclopropyl)-1-(5-methyl-1,3,4-thiadiazol-2-yl) indole-6-sulfonamide]",135 nM,218 nM,–
"Cc1nnc(-n2cc(C(=O)c3ccc(F)cc3)c3ccc(S(=O)(=O)NC4(C)CC4)cc32)s1 [Example 131, 3-(4-Fluorobenzoyl)-N-(1-methylcyclopropyl)-1-(5-methyl-1,3,4-thiadiazol-2-yl)indole-6-sulfonamide]",–,261 nM,228 nM
Cc1nnc(-n2c(=O)n(CCCN(C)C)c3ccc(S(=O)(=O)NC4(C)CC4)cc32)s1 [Example 135],371 nM,512 nM,–
Cc1nnc(-n2c(=O)n(CC3CCCCN3C)c3ccc(S(=O)(=O)NC4(C)CC4)cc32)s1 (centres unmarked) [Example 143],343 nM,441 nM,–

Compound,IC50 (PARG in HeLa cell line; [1]),EC50 (Human Full Length PARG),IC50 (PARG in HeLa cell line)
"CC(=O)c1cn(-c2nnc(C)s2)c2cc(S(=O)(=O)NC3(C)CC3)ccc12 [Example 144, 3-Acetyl-N-(1-methylcyclopropyl)-1-(5-methyl-1,3,4-thiadiazol-2-yl)indole-6-sulfonamide]",–,595 nM,–
COCCn1c(=O)n(-c2nnc(C)s2)c2cc(S(=O)(=O)NC3(C)CC3)ccc21 [Example 147],437 nM,461 nM,–
COCCCn1c(=O)n(-c2nnc(C)s2)c2cc(S(=O)(=O)NC3(C)CC3)ccc21 [Example 148],238 nM,373 nM,–
Cc1nnc(-n2c(=O)n(CCN3CCCCC3)c3ccc(S(=O)(=O)NC4(C)CC4)cc32)s1 [Example 149],–,735 nM,–
COCCCn1c(=O)n(-c2nnc(C)o2)c2cc(S(=O)(=O)NC3(C)CC3)ccc21 [Example 150],–,904 nM,–
Cc1nnc(-n2c(=O)n(CCC(N)=O)c3ccc(S(=O)(=O)NC4(C)CC4)cc32)o1 [Example 151],–,1160 nM,–
Cc1nnc(-n2c(=O)n(CCN3CCOCC3)c3ccc(S(=O)(=O)NC4(C)CC4)cc32)s1 [Example 152],194 nM,275 nM,–
Cc1nnc(-n2c(=O)n(CCN3CCCC3)c3ccc(S(=O)(=O)NC4(C)CC4)cc32)s1 [Example 153],–,1120 nM,–
Cc1nnc(-n2c(=O)n(CCC(N)=O)c3ccc(S(=O)(=O)NC4(C)CC4)cc32)s1 [Example 154],9080 nM,614 nM,–
Cc1nnc(-n2c(=O)n(CC3CCCN3C)c3ccc(S(=O)(=O)NC4(C)CC4)cc32)s1 (centres unmarked) [Example 155],166 nM,464 nM,–
"Cc1nnc(-n2c(=O)n(C)c3ccc(S(=O)(=O)NC4(CF)CC4)cc32)s1 [Example 156, N-[1-(Fluoromethyl)cyclopropyl]-1-methyl-3-(5-methyl-1,3,4-thiadiazol-2-yl)-2-oxo-benzimidazole-5-sulfonamide]",589 nM,686 nM,–
"Cc1nnc(-n2c(=O)[nH]c3ccc(S(=O)(=O)NC4(C#N)CC4)cc32)s1 [Example 157, N-(1-Cyanocyclopropyl)-3-(5-methyl-1,3,4-thiadiazol-2-yl)-2-oxo-1H-benzimidazole-5-sulfonamide]",3500 nM,1170 nM,–
"CCn1c(=O)n(-c2nnc(C)s2)c2cc(S(=O)(=O)NC3(C#N)CC3)ccc21 [Example 158, N-(1-Cyanocyclopropyl)-1-ethyl-3-(5-methyl-1,3,4-thiadiazol-2-yl)-2-oxo-benzimidazole-5-sulfonamide]",486 nM,1040 nM,–
"CCn1c(=O)n(-c2nnc(C)s2)c2cc(S(=O)(=O)NC3(CF)CC3)ccc21 [Example 159, 1-Ethyl-N-[1-(fluoromethyl)cyclopropyl]-3-(5-methyl-1,3,4-thiadiazol-2-yl)-2-oxo-benzimidazole-5-sulfonamide]",349 nM,590 nM,–
"COCCn1c(=O)n(-c2nnc(C)s2)c2cc(S(=O)(=O)NC3(CF)CC3)ccc21 [Example 160, N-[1-(Fluoromethyl)cyclopropyl]-1-(2-methoxyethyl)-3-(5-methyl-1,3,4-thiadiazol-2-yl)-2-oxo-benzimidazole-5-sulfonamide]",453 nM,616 nM,–
"COCCn1c(=O)n(-c2nnc(C)s2)c2cc(S(=O)(=O)NC3(C#N)CC3)ccc21 [Example 161, N-(1-Cyanocyclopropyl)-1-(2-methoxyethyl)-3-(5-methyl-1,3,4-thiadiazol-2-yl)-2-oxo-benzimidazole-5-sulfonamide]",491 nM,616 nM,–
"COCCn1c(=O)n(-c2nnc(C(F)F)s2)c2cc(S(=O)(=O)NC3(C#N)CC3)ccc21 [Example 162, N-(1-Cyanocyclopropyl)-3-[5-(difluoromethyl)-1,3,4-thiadiazol-2-yl]-1-(2-methoxyethyl)-2-oxo-benzimidazole-5-sulfonamide]",176 nM,260 nM,–
Cc1nsc(-n2c(=O)n(C)c3ccc(S(=O)(=O)NC4(CF)CC4)cc32)n1 [Example 177],2540 nM,–,–
